Data taken from patent US11472778B2, “Hepatitis C virus NS3/4A protease inhibitors” (priority 2017, dated 2022).
Read-outs that look alike come from different tables or passages of the source.

Experiments:
[1] = molecular target: T1, GT1a D168A NS3/4A protease (UniProt P27958, D1194A, species not given); type: biochemical, Hepatitis C virus
T1 construct: rows headed: Ki (nM) D168A; Ki D168A; other: D168A variant
In short: (§1)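 Enzyme (GT1a wild type or D168A mutant, 2 nM) was preincubated with inhibitor dilutions for 1 h at room temperature in pH 7.5 Tris buffer with glycerol, DTT, LDAO and 4% DMSO.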

[2] = molecular target: GT1a D168A NS3/4A protease; type: biochemical, Hepatitis C virus; conditions: fold change in Ki, D168A relative to WT
In short: as §1

[3] = molecular target: T2, wild-type GT1a NS3/4A protease (UniProt P27958); type: biochemical, Hepatitis C virus
T2 construct: Ki WT; other: wild-type HCV NS3/4A protease
In short: as §1

[4] = tested on: wild-type HCV replicon in Huh7 cells; test: Cell-based drug susceptibility (replicon) assay, wild-type; conditions: Hepatitis C virus, Huh-7, Table 9; read-out: Replicon EC50 (nM) WT
In short: (§2)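 Protease variants were introduced by site-directed mutagenesis into a genotype 1b Con1 luciferase replicon containing genotype 1a H77 NS3. Each replicon RNA was electroporated into Huh7 cells. Inhibitor was titrated upward. Luminescence was measured after 96 h.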

[5] = tested on: HCV replicon A156T variant in Huh7 cells; test: microbe, parasite or virus in culture; type: cell-based, Hepatitis C virus; conditions: for EC50: Hepatitis C virus, Huh-7, read-out: Replicon EC50 (nM) A156T, Table 9; for Replicon EC50 (Fold change) A156T: Table 9, relative to WT
In short: as §2

[6] = tested on: HCV replicon D168A variant in Huh7 cells; test: microbe, parasite or virus in culture; type: cell-based, Hepatitis C virus; conditions: for EC50: Hepatitis C virus, Huh-7, read-out: Replicon EC50 (nM) D168A, Table 9; for Replicon EC50 (Fold change) D168A: Table 9, relative to WT
In short: as §2

[7] = tested on: HCV replicon R155K variant in Huh7 cells; test: microbe, parasite or virus in culture; type: cell-based, Hepatitis C virus; conditions: for EC50: Hepatitis C virus, Huh-7, read-out: Replicon EC50 (nM) R155K, Table 9; for Replicon EC50 (Fold change) R155K: Table 9, relative to WT
In short: as §2

[8] = tested on: HCV replicon D168V variant in Huh7 cells; test: microbe, parasite or virus in culture; type: cell-based, Hepatitis C virus; conditions: for Replicon EC50 (Fold change) D168V: relative to WT
In short: as §2

[9] = molecular target: GT1a R155K NS3/4A protease (UniProt P27958, R1181K, species not given); type: biochemical, Hepatitis C virus
Procedure: (§3) For each assay, 2 nM of NS3/4A protease (GT1a, R155K and D168A) was pre-incubated at room temperature for 1 h with increasing concentration of inhibitors in assay buffer (50 mM Tris, 5% glycerol, 10 mM DTT, 0.6 mM LDAO, and 4% dimethyl sulfoxide, pH 7.5). Inhibition assays were performed in non-binding surface 96-well black half-area plates (Corning) in a reaction volume of 60 μL. […] Three independent data sets were collected for each inhibitor with each protease construct. […] Gibbs free energy of binding was calculated using the following equation: ΔG=RTlnKi

[10] = molecular target: GT1a R155K NS3/4A protease; type: biochemical, Hepatitis C virus; conditions: fold change in Ki, R155K relative to WT
Procedure: as §3

[11] = read-out: Ki (nM) D168A, Table 8, linear inhibitors
[12] = read-out: Ki D168A, D168A variant
[13] = read-out: Ki (nM) WT, Table 8, linear inhibitors
[14] = read-out: Ki WT, wild-type HCV NS3/4A protease
[15] = Hepatitis C virus, Huh-7, read-out: Replicon EC50 (nM) D168V, Table 9
[16] = read-out: Ki (nM) R155K, Table 8, linear inhibitors
[17] = read-out: Ki R155K, R155K variant
[18] = read-out: Replicon EC50 (nM) D168V, Table 9

C=C[C@@H]1C[C@]1(NC(=O)[C@@H]1C[C@@H](Oc2nc3cc(OC)ccc3nc2CC)CN1C(=O)[C@@H](NC(=O)OC(C)(C)C)C(C)(C)C)C(=O)NS(=O)(=O)C1CC1 [Compound 3, tert-Butyl ((S)-1-((2S,4R)-2-(((1R,2S)-1-((cyclopropylsulfonyl)carbamoyl)-2-vinylcyclopropyl)carbamoyl)-4-((3-ethyl-7-methoxyquinoxalin-2-yl)oxy)pyrrolidin-1-yl)-3,3-dimethyl-1-oxobutan-2-yl)carbamate]
Ki [1, 11]: 642 ± 101 nM | Ki [1, 12]: 642 ± 101 nM | Ki D168A (fold change) [2]: 34 | Ki [3, 13]: 19 nM | Ki [3, 14]: 19 ± 2.7 nM | EC50 [4]: 24 nM | EC50 [5]: 73 nM | Replicon EC50 (Fold change) A156T [5]: (3.0) fold | EC50 [6]: > 500 nM | Replicon EC50 (Fold change) D168A [6]: (>21) fold | EC50 [7]: 50 nM | Replicon EC50 (Fold change) R155K [7]: (2.1) fold | EC50 [8, 15]: > 500 nM | Replicon EC50 (Fold change) D168V ([8]; Table 9): (>21) fold | Ki [9, 16]: 17 ± 2.3 nM | Ki [9, 17]: 17 ± 2.3 nM | Ki R155K (fold change) [10]: 0.9

C=C[C@@H]1C[C@]1(NC(=O)[C@@H]1C[C@@H](Oc2nc3cc(OC)ccc3nc2Cl)CN1C(=O)[C@@H](NC(=O)OC(C)(C)C)C(C)(C)C)C(=O)NS(=O)(=O)C1CC1 [Compound 9d, tert-Butyl ((S)-1-((2S,4R)-4-((3-chloro-7-methoxyquinoxalin-2-yl)oxy)-2-(((1R,2S)-1-((cyclopropylsulfonyl)carbamoyl)-2-vinylcyclopropyl)carbamoyl)pyrrolidin-1-yl)-3,3-dimethyl-1-oxobutan-2-yl)carbamate]
Ki [1, 11]: 128 ± 16 nM | Ki [1, 12]: 128 ± 16 nM | Ki D168A (fold change) [2]: 16 | Ki [3, 13]: 7.8 ± 1.1 nM | Ki [3, 14]: 7.8 ± 1.1 nM | EC50 [4]: 6.6 nM | EC50 [5]: 107 nM | Replicon EC50 (Fold change) A156T [5]: (16) fold | Replicon EC50 (Fold change) D168A [6]: (5.8) fold | EC50 [7]: 10 nM | Replicon EC50 (Fold change) R155K [7]: (1.5) fold | EC50 [8, 15]: 12 to 38 nM | Replicon EC50 (Fold change) D168V ([8]; Table 9): (1.8) fold | EC50 [8, 18]: 12 nM | Ki [9, 16]: 2.2 ± 0.4 nM | Ki [9, 17]: 2.2 ± 0.4 nM | Ki R155K (fold change) [10]: 0.3

C=C[C@@H]1C[C@]1(NC(=O)[C@@H]1C[C@@H](Oc2nc3cc(OC)ccc3nc2Cl)CN1C(=O)[C@@H](NC(=O)OC(C)(C)C)C(C)(C)C)C(=O)NS(=O)(=O)C1(C)CC1 [Compound 10d, tert-Butyl ((S)-1-((2S4R)-4-((3-chloro-7-methoxyquinoxalin-2-yl)oxy)-2-(((1R,2SD)-1-(((1-methylcyclopropyl)sulfonyl)carbamoyl)-1-vinylcyclopropyl)carbamoyl)pyrrolidin-1-yl)-3,3-dimethyl-1-oxobutan-2-yl)carbamate]
Ki [1, 11]: 119 ± 16 nM | Ki [1, 12]: 119 ± 16 nM | Ki D168A (fold change) [2]: 31 | Ki [3, 13]: 6.1 ± 1.1 nM | Ki [3, 14]: 6.1 ± 1.1 nM | EC50 [4]: 6.3 nM | EC50 [5]: 100 nM | Replicon EC50 (Fold change) A156T [5]: (16) fold | Replicon EC50 (Fold change) D168A [6]: (4.8) fold | EC50 [7]: 10 nM | Replicon EC50 (Fold change) R155K [7]: (1.6) fold | EC50 [8, 15]: 12 to 38 nM | Replicon EC50 (Fold change) D168V ([8]; Table 9): (1.9) fold | EC50 [8, 18]: 12 nM | Ki [9, 16]: 3.8 ± 0.6 nM | Ki [9, 17]: 3.8 ± 0.6 nM | Ki R155K (fold change) [10]: 0.7

C=C[C@@H]1C[C@]1(NC(=O)[C@@H]1C[C@@H](Oc2nc3cc(OC)ccc3nc2C)CN1C(=O)[C@@H](NC(=O)OC1CCCC1)C(C)(C)C)C(=O)NS(=O)(=O)C1CC1 [Compound 11b, Cyclopentyl ((S)-1-((2S,4R)-2-(((1R,2S)-1-((cyclopropylsulfonyl)carbamoyl)-2-vinylcyclopropyl)carbamoyl)-4-((7-methoxy-3-methylquinoxalin-2-yl)oxy)pyrrolidin-1-yl)-3,3-dimethyl-1-oxobutan-2-yl)carbamate]
Ki [1, 11]: 144 ± 23 nM | Ki [1, 12]: 144 ± 23 nM | Ki D168A (fold change) [2]: 16 | Ki [3, 13]: 9.2 ± 0.9 nM | Ki [3, 14]: 9.2 ± 0.9 nM | EC50 [4]: 10 nM | EC50 [5]: 164 nM | Replicon EC50 (Fold change) A156T [5]: (16) fold | EC50 [6]: 101 nM | Replicon EC50 (Fold change) D168A [6]: (10) fold | EC50 [7]: 48 nM | Replicon EC50 (Fold change) R155K [7]: (4.8) fold | EC50 [8, 15]: 150 nM | Replicon EC50 (Fold change) D168V ([8]; Table 9): (15) fold | Ki [9, 16]: 9.6 ± 0.9 nM | Ki [9, 17]: 9.6 ± 0.9 nM | Ki R155K (fold change) [10]: 1.0

C=C[C@@H]1C[C@]1(NC(=O)[C@@H]1C[C@@H](Oc2nc3cc(OC)ccc3nc2Cl)CN1C(=O)[C@@H](NC(=O)OC1CCCC1)C(C)(C)C)C(=O)NS(=O)(=O)C1CC1 [Compound 11d, Cyclopentyl ((S)-1-((2S,4R)-4-((3-chloro-7-methoxyquinoxalin-2-yl)oxy)-2-(((1R,2S)-1-((cyclopropylsulfonyl)carbamoyl)-2-vinylcyclopropyl)carbamoyl)pyrrolidin-1-yl)-3,3-dimethyl-1-oxobutan-2-yl)carbamate]
Ki [1, 11]: 99 ± 10 nM | Ki [1, 12]: 99 ± 10 nM | Ki D168A (fold change) [2]: 26 | Ki [3, 13]: 3.8 nM | Ki [3, 14]: 3.8 ± 0.6 nM | EC50 [4]: 7.4 nM | EC50 [5]: 292 nM | Replicon EC50 (Fold change) A156T [5]: (40) fold | EC50 [6]: 50 nM | Replicon EC50 (Fold change) D168A [6]: (6.8) fold | EC50 [7]: 40 nM | Replicon EC50 (Fold change) R155K [7]: (5.4) fold | EC50 [8, 15]: 54 nM | Replicon EC50 (Fold change) D168V ([8]; Table 9): (7.3) fold | Ki [9, 16]: 4.1 ± 0.5 nM | Ki [9, 17]: 4.1 ± 0.5 nM | Ki R155K (fold change) [10]: 1.1

C=C[C@@H]1C[C@]1(NC(=O)[C@@H]1C[C@@H](Oc2nc3cc(OC)ccc3nc2Cl)CN1C(=O)[C@@H](NC(=O)OC1CCCC1)C(C)(C)C)C(=O)NS(=O)(=O)C1(C)CC1 [Compound 12d, Cyclopentyl ((S)-1-((2S,4R)-4-((3-chloro-7-methoxyquinoxalin-2-yl)oxy)-2-(((1R,2S)-1-(((1-methylcyclopropyl)sulfonyl)carbamoyl)-2-vinylcyclopropyl)carbamoyl)pyrrolidin-1-yl)-3,3-dimethyl-1-oxobutan-2-yl)carbamate]
Ki [1, 11]: 51 ± 6 nM | Ki [1, 12]: 51 ± 6 nM | Ki D168A (fold change) [2]: 13 | Ki [3, 13]: 3.9 nM | Ki [3, 14]: 3.9 ± 0.7 nM | EC50 [4]: 3.1 nM | EC50 [5]: 163 nM | Replicon EC50 (Fold change) A156T [5]: (53) fold | Replicon EC50 (Fold change) D168A [6]: (8.1) fold | EC50 [7]: 27 nM | Replicon EC50 (Fold change) R155K [7]: (8.7) fold | EC50 [8, 15]: 12 to 38 nM | Replicon EC50 (Fold change) D168V ([8]; Table 9): (7.4) fold | EC50 [8, 18]: 23 nM | Ki [9, 16]: 5.2 ± 0.8 nM | Ki [9, 17]: 5.2 ± 0.8 nM | Ki R155K (fold change) [10]: 1.3
